US20160287615A1, “NOVEL ENCAPSULATION OF FLUORESCENT, PHOTO-SENSITIVE, OR OXYGEN-SENSITIVE ACTIVE INGREDIENT FOR TOPICAL APPLICATION” (BioPharmX, Inc., priority 2015, published 2016)
Structures can show the parent of a compound that is named as a salt.

What was measured:
[1] = 10 h
Experimental: Additional data was collected with a high performance liquid chromatography (HPLC) machine for two samples. The first sample was minocycline HCl and the second sample comprised a plurality of microparticles that contained minocycline HCl. […] Following exposure of both samples to ultraviolet illumination for 10 hours, an HPLC machine was used to assess the level of degradation of the minocycline active ingredient in both samples.

[2] = Fluorescence microscopy of compositions under UV fluorescent lamp illumination; assay type: physicochemical; details: 450 nm excitation wavelength
Text: FIGS. 4a and 4b are images of the fluorescence given off by different compositions in response to illumination with a UV fluorescent lamp. The images of FIGS. 4a and 4b were captured using a digital camera connected to a microscope.
FIGS. 5a and 5b are images of the fluorescence given off by different compositions in response to illumination with a UV fluorescent lamp. The images of FIGS. 5a and 5b were captured using a digital camera connected to a microscope.
The composition includes minocycline contained in a plurality of Mg2CO3 tubular microparticles with a concentration of 1:100 of minocycline to Mg2CO3 tubular microparticles (10 milligrams of minocycline per gram of Mg2CO3 tubular microparticles).
The composition shown in FIG. 4b was made by dissolving minocycline HCl in methyl alcohol at a concentration of 10 mg/ml. A plurality of tubular microparticles comprising Mg2CO3 was added to the solution. Microscope slides were prepared with minocycline HCl (shown in FIG. 4a) and the prepared composition with a plurality of tubular microparticles described in this paragraph (shown in FIG. 4b).
Fluorescence can be an indicator of photo-initiated degradation of some antibiotics, including minocycline.

degradation of the minocycline active ingredient [1]: 4.3% | fluorescence emission wavelength [2]: approximately 670 nm | fluorescence observed by fluorescence microscopy ([2]; UV fluorescent lamp illumination, microscope magnification at 10 times): showed fluorescence emission
Structure (SMILES): CN(C)c1ccc(O)c2c1C[C@H]1C[C@H]3[C@H](N(C)C)C(O)=C(C(N)=O)C(=O)[C@@]3(O)C(O)=C1C2=O [minocycline HCl]
